Common to all, as to test: DTP human tumour cell line panel, 48 h
Test [1] relates to DU-145 prostate.
Test [2] deals with EKVX NSCLC.
Test [3] has as its system HCC-2998 colon.
Test [4] deals with PC-3 prostate.
The test system of test [5] is SF-539 CNS.
Test [6] has as its system SK-MEL-5 melanoma.
For test [7], the system named is SN12C renal.
The test system of test [8] is SNB-19 CNS.
In test [9] the test system is U251 CNS.
Test [10] has as its system UACC-257 melanoma.

SMILES strings stand for the structures.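 Cultured in 96-well plates, cells were exposed to test compound for 48 hours across five concentrations. GI50 is the concentration that inhibits growth by half. TGI denotes the concentration required for complete inhibition of growth.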 Bounds are passed on as bounds.

On to `Cc1c(N(C)C)ccc2c(=O)c3cccc(CC(=O)O)c3oc12`, for which the TGI in [1], in test [2], in [3], in test [4], in [5] and in [6] was more than 100 µM in each case. Besides, the concentration for total growth inhibition (TGI) in test [7] is more than 100 µM; in test [8] it was more than 69 µM; in test [9], more than 100 µM; in test [10], more than 100 µM.

With `CN(C)C1CCN(C(=O)c2ccc(NC(=O)Nc3ccc(-c4nc(N5CCOCC5)c5cccn5n4)cc3)cc2)CC1`, the concentration for 50% growth inhibition (GI50) is 0.0335 µM in test [1]; 0.0702 µM in test [2]; 0.043 µM in [3]; 0.0397 µM in test [4]; 0.0453 µM in [5]; 0.153 µM in test [6]. Further, the GI50 is 0.0365 µM in [7], 0.0403 µM in test [8], 0.0599 µM in [9] and 0.204 µM in test [10]. Also, the total growth inhibition concentration (TGI) in [1] was 12.6 µM; in test [2] it was 3.46 µM; in [3], 5.86 µM; in [4] it was 2.1 µM; in test [5] it was 0.406 µM; in [6], 0.662 µM. Moreover, the TGI in test [7] worked out at 14.7 µM; in test [8] it was 6.22 µM; in test [9], 14.4 µM; in test [10] it was 0.729 µM.

Turning to `CN(C)CC[C@H](CSc1ccccc1)Nc1ccc(S(=O)(=O)NC(=O)c2ccc(N3CCN(Cc4ccccc4-c4ccc(Cl)cc4)CC3)cc2)cc1[N+](=O)[O-]`, the GI50 in test [1] is 23 µM; in [2], 3.32 µM; in test [3], 0.457 µM; in test [4], 4.07 µM; in test [5], 36.5 µM; in test [6] it was 1.56 µM. In addition, the GI50 in test [7] is 3.56 µM; in test [8] it was 4.68 µM; in [9] it was 3.9 µM; in test [10], 1.79 µM. Moreover, the TGI was more than 100 µM in test [1]; more than 100 µM in [2]; 2.01 µM in [3]; more than 100 µM in test [4]; more than 100 µM in test [5]; 3.23 µM in test [6]. Further, the total growth inhibition concentration (TGI) in [7] was more than 56.7 µM; in test [8], more than 100 µM; in test [9], 17.4 µM; in test [10] it was 6.16 µM.

`O=C(Cc1ccc(F)c(Cl)c1)Nc1cc(C2(C(F)(F)F)CC2)nn1CC1CCCCC1`: the GI50 in [1] is 5.39 µM; in test [2] it was 2.55 µM; in test [3], 4.45 µM; in test [4], 4.68 µM; in test [5] it was 4.86 µM; in test [6], 2.61 µM. Moreover, the GI50 was 4.46 µM in test [7], 4.78 µM in test [8], 5.13 µM in test [9] and 3.38 µM in [10]. Moreover, the concentration for total growth inhibition (TGI) is more than 15 µM in test [1]; 12.6 µM in test [2]; more than 15 µM in [3]; more than 15 µM in test [4]; more than 15 µM in test [5]; 4.88 µM in [6]. For the same compound, the TGI is more than 15 µM in [7], more than 15 µM in test [8], more than 15 µM in [9] and 11.2 µM in test [10].

With `CCn1c(O)c(/C=N/NC(=O)C(C)c2ccc(CC(C)C)cc2)sc1=S` (stereo not given), the GI50 is 0.365 µM in test [1]; 0.596 µM in test [2]; 0.839 µM in test [3]; 0.415 µM in [4]; 0.214 µM in test [5]; 0.489 µM in [6]. In addition, the GI50 was 0.619 µM in [7], 0.433 µM in [8], 0.399 µM in test [9] and 3.16 µM in test [10]. The concentration for total growth inhibition (TGI) in [1] is more than 22.1 µM; in test [2], more than 46 µM; in test [3], 13.7 µM; in [4] it was more than 41.4 µM; in [5], 0.609 µM; in test [6] it was 3.26 µM. For the same compound, the TGI was more than 40.3 µM in [7], more than 41.8 µM in test [8], more than 38 µM in test [9] and more than 74.9 µM in test [10].

With `Cc1nnc(Nc2ccc(NC(=O)Nc3ccc(Cl)cc3)cc2)c2ccccc12`, the GI50 is 4.77 µM in test [1]; 3.47 µM in test [2]; 2.84 µM in [3]; 3.49 µM in [4]; 1.61 µM in [5]; 1.85 µM in test [6]. Moreover, the GI50 in test [7] was 2.86 µM; in test [8] it was 2.77 µM; in test [9], 1.98 µM; in test [10], 2.39 µM. For the same compound, the concentration for total growth inhibition (TGI) in test [1] was found to be 19.5 µM; in test [2], 17.9 µM; in test [3] it was 8.09 µM; in [4], 11.9 µM; in [5], 3.32 µM; in test [6], 3.5 µM. The TGI in test [7] came to 9.41 µM; in [8], 8.72 µM; in test [9], 3.75 µM; in test [10] it was 5.3 µM.

As to `C=CCC1(c2ccc(OC)cc2)C=CC(=O)CC1` (stereo not given), the concentration for total growth inhibition (TGI) in test [1], in test [2], in [3], in test [4], in test [5] and in test [6] was more than 100 µM throughout. Moreover, the TGI in [7], in [8], in test [9] and in [10] was more than 100 µM in each case.

Regarding `COc1ccc(-c2ccc(=O)oc2C#Cc2cc(OC)c(OC)c(OC)c2)cc1O`, the GI50 in test [1] was 0.248 µM; in test [2], 1.38 µM; in test [3], 0.265 µM; in test [4] it was 0.621 µM; in [5], 0.254 µM; in [6], 0.183 µM. In addition, the GI50 was 0.665 µM in test [7], 0.612 µM in test [8], 0.358 µM in test [9] and 0.857 µM in test [10]. Also, the total growth inhibition concentration (TGI) in test [1] is 1.54 µM; in [2], more than 100 µM; in test [3], more than 100 µM; in [4], more than 100 µM; in test [5], 1.16 µM; in test [6] it was 1.16 µM. Further, the concentration for total growth inhibition (TGI) is more than 100 µM in test [7], more than 100 µM in test [8], 4.58 µM in test [9] and more than 37.3 µM in [10].

Broadly, the TGI is the concentration giving total growth inhibition. The GI50 is the concentration giving 50% growth inhibition.
